In paper PMC10833105 (Journal of medicinal chemistry, 2023):
Read-outs that look alike come from different tables or passages of the source.

Tests used:
GABAAR [1] = conditions: 3H-flunitrazepam, rat brain extract; for IC50: read-out: GABAAR binding IC50
in vitro = conditions: PAMPA, pH 7.4
female A/J mice = test: Methacholine-induced airway hyperresponsiveness, double chamber plethysmograph; type: in vivo, mouse; conditions: nebulized 7.2 mg/kg, then five nebulized methacholine challenges, vs vehicle
[2] = system: guinea pig airway smooth muscle; test: Ex vivo airway smooth muscle relaxation, substance P-contracted tracheal rings; conditions: 25 μM, vs vehicle
GABAAR [3] = conditions: read-out: GABAAR binding IC50; reported earlier; cited from earlier work
[4] = system: female Swiss Webster mice; conditions: oral dosing up to 1000 mg/kg; cited from earlier work
[5] = Microsomal stability phase 1; type: in vitro ADME; conditions: mouse liver S9, NADPH, 10 μM compound
[6] = Metabolic stability phase 2; type: in vitro ADME; conditions: mouse liver S9, UDP-glucuronic acid, 10 μM compound
[7] = cited from earlier work
[8] = Microsomal stability phase 1; type: in vitro ADME; conditions: human liver S9, NADPH, 10 μM compound
[9] = Metabolic stability phase 2; type: in vitro ADME; conditions: human liver S9, UDP-glucuronic acid, 10 μM compound
[10] = system: female Swiss Webster mice; test: Rotarod sensorimotor inhibition; type: in vivo, mouse; conditions: diazepam 8 mg/kg

Row | SMILES | IC50 (GABAAR [1]) | Papp (in vitro) | GABAAR binding (in words) (GABAAR [1]) | other results
1 | CC1(C)N=C(c2ccccc2F)c2cc(Br)ccc2NC1=O [3a, 7-Bromo-5-(2-fluorophenyl)-3,3-dimethyl-1,3-dihydro-2H-benzo[e][1,4]diazepin-2-one] | 1250 nM | – | – | –
2 | O=C1Nc2ccc(Br)cc2C(c2ccccc2F)=NC12CC2 [3c] | 42 nM | – | – | –
3 | O=C1Nc2ccc(Br)cc2C(c2ccccc2F)=NC12CCC2 [3d] | 2040 nM | 3.16 ×10⁻⁶ cm/s | – | –
4 | O=C1Nc2ccc(Br)cc2C(c2ccccc2F)=NC12CCCC2 [3e] | – | 0.158 ×10⁻⁶ cm/s | no significant binding | –
5 | O=C1Nc2ccc(Br)cc2C(c2ccccc2F)=NC12CCCCC2 [3f] | – | 0.0794 ×10⁻⁶ cm/s | no significant binding | –
6 | O=C1Nc2ccc(Cl)cc2C(c2ccccc2F)=NC12CC2 [3g] | 665 nM | – | – | –
7 | CCOC(=O)c1ncn2c1C(C)(C)N=C(c1ccccc1F)c1cc(Br)ccc1-2 [4a] | 733 nM | – | Some activity was retained | –
8 | CCOC(=O)c1ncn2c1C1(CC1)N=C(c1ccccc1F)c1cc(Br)ccc1-2 [4c, Ethyl 8-bromo-6-(2-fluorophenyl)spiro[benzo[f]imidazo[1,5-α][1,4]diazepine-4,1′-cyclopropane]-3-carboxylate] | 87 nM | – | – | –
9 | CCOC(=O)c1ncn2c1C1(CCC1)N=C(c1ccccc1F)c1cc(Br)ccc1-2 [4d] | 859 nM | 6.31 ×10⁻⁶ cm/s | Some activity was retained | –
10 | CCOC(=O)c1ncn2c1C1(CCCC1)N=C(c1ccccc1F)c1cc(Br)ccc1-2 [4e] | – | 1.58 ×10⁻⁶ cm/s | not active | –
11 | CCOC(=O)c1ncn2c1C1(CCCCC1)N=C(c1ccccc1F)c1cc(Br)ccc1-2 [4f] | 6220 nM | 1 ×10⁻⁶ cm/s | not active | –
12 | CCOC(=O)c1ncn2c1C1(CC1)N=C(c1ccccc1F)c1cc(Cl)ccc1-2 [4g] | – | 2.51 ×10⁻⁶ cm/s | weak GABAAR ligands | –
13 | CCOC(=O)c1ncn2c1C1(CC1)N=C(c1ccccc1F)c1cc(C3CC3)ccc1-2 [4i, Ethyl 8-Cyclopropyl-6-(2-fluorophenyl)spiro-[benzo[f]imidazo[1,5-α][1,4]diazepine-4,1′-cyclopropane]-3-carboxylate] | – | 12.6 ×10⁻⁶ cm/s | – | –
14 | CC1(C)N=C(c2ccccc2F)c2cc(Br)ccc2-n2cnc(C(=O)O)c21 [5a] | 4050 nM | – | did not show strong GABAAR binding | effect on specific airway resistance (sRaw) (female A/J mice): little to no change of sRaw values
15 | O=C(O)c1ncn2c1C1(CC1)N=C(c1ccccc1F)c1cc(Br)ccc1-2 [5c, 8-Bromo-6-(2-fluorophenyl)-spiro[benzo[f]imidazo[1,5-α][1,4]diazepine-4,1′-cyclopropane]-3-carboxylic Acid] | 9 nM | – | – | relaxation of constricted airway smooth muscle ([2]; at 30 min): significant relaxation
16 | O=C(O)c1ncn2c1C1(CCC1)N=C(c1ccccc1F)c1cc(Br)ccc1-2 [5d] | 1830 nM | – | – | relaxation of constricted airway smooth muscle ([2]; at 60 min): weak airway smooth muscle relaxation
17 | O=C(O)c1ncn2c1C1(CCCCC1)N=C(c1ccccc1F)c1cc(Br)ccc1-2 [5f] | – | – | – | relaxation of constricted airway smooth muscle ([2]; at 30 min): significant relaxation
18 | O=C(O)c1ncn2c1C1(CC1)N=C(c1ccccc1F)c1cc(Cl)ccc1-2 [5g] | – | – | weak GABAAR ligands | –
19 | C#Cc1ccc2c(c1)C(c1ccccc1F)=NC1(CC1)c1c(C(=O)O)ncn1-2 [5h, 8-Ethynyl-6-(2-fluorophenyl)spiro[benzo[f]-imidazo[1,5-α][1,4]diazepine-4,1′-cyclopropane]-3-carboxylic Acid] | 59 nM | – | – | relaxation of constricted airway smooth muscle ([2]; at 30 min): significant relaxation
20 | O=C(O)c1ncn2c1C1(CC1)N=C(c1ccccc1F)c1cc(C3CC3)ccc1-2 [5i] | 1830 nM | – | weak GABAAR ligands | –
21 | O=C(O)c1ncn2c1C1(CC1)N=C(c1ccccc1F)c1ccccc1-2 [5j, 6-(2-Fluorophenyl)spiro[benzo[f]imidazo[1,5-α][1,4]diazepine-4,1′-cyclopropane]-3-carboxylic Acid] | 289 nM | – | – | relaxation of constricted airway smooth muscle ([2]; at 30 min): significant relaxation
22 | C[C@@H]1N=C(c2ccccc2F)c2cc(Br)ccc2-n2cnc(C(=O)O)c21 [MIDD0301S] | – | – | – | IC50 (GABAAR [3]): 25 nM
23 | C[C@H]1N=C(c2ccccc2F)c2cc(Br)ccc2-n2cnc(C(=O)O)c21 [MIDD0301] | – | – | – | sensorimotor inhibition on rotarod [4]: absence of sensorimotor inhibition; remaining percentage of parent compound after 2 h, phase 1 [5]: 110 ± 14%; IC50 (GABAAR [3]): 26 nM; remaining percentage of parent compound after 2 h, phase 2 [6]: 73 ± 8%; aqueous solubility (in words) ([7]; pH values between 3 and 6): significantly decreased; aqueous solubility (in words) ([7]; strong acidic, neutral and basic conditions): excellent solubility; remaining percentage of parent compound after 2 h, phase 1 [8]: 98 ± 4%; remaining percentage of parent compound after 2 h, phase 2 [9]: 77 ± 3%
24 | CN1C(=O)CN=C(c2ccccc2)c2cc(Cl)ccc21 [diazepam] | – | – | – | sensorimotor inhibition on rotarod [10]: rapid and significant loss of sensorimotor coordination
